# Experimental data taken from ChEMBL document CHEMBL5329217, “Hesperidin Methyl Chalcone reduces extracellular Aβ(25-35) peptide aggregation and fibrillation and also protects Neuro 2a cells from Aβ(25-35) induced neuronal dysfunction” (Bioorg Med Chem, 2023).
# Active and inactive are the calls of the source. The rule behind the calls is not given here.
# Columns and labels:
# N2a [1] = assay: (§1) Inhibition of Amyloid beta (25 to 35)-induced macromolecular damage in mouse Neuro2a cells assessed as reduction in protein oxidation by measuring protein carbonyl content at 50 ug/ml pretreated for 2 hrs followed by amyloid beta (25 to 35) addition and measured after 24 hrs per mg protein (reference value: 44.06 +/- 1.02 mmol); format: functional; conditions: dose 50 µg/ml; time 26 hrs
# Artemia salina [2] = assay: Toxicity in Artemia salina assessed as decrease in total length of the shrimp at 5 to 100 ug/ml measured after 24 hrs by phase contrast light microscopy; format: organism-based; conditions: in vivo, dose 5-100 µg/ml
# N2a [3] = assay: (§2) Neuroprotective activity against Amyloid beta (25 to 35)-induced toxicity in mouse Neuro2a cells assessed as non-apoptotic viable cells at 25 ug/ml pretreated for 2 hrs followed by amyloid beta (25 to 35) addition and measured after 24 hrs by AO/EtBr dual staining based fluorescence microscopy (reference value: 53.4 +/-3.88%); format: functional; conditions: dose 25 µg/ml; time 26 hrs
# [4] = molecular target: T1, Acetylcholinesterase (Mus musculus) (UniProt P21836); assay: Inhibition of Amyloid beta (25 to 35)-induced AChE activity in mouse Neuro2a cells assessed as AChE activity at 50 ug/ml pretreated for 2 hrs followed by amyloid beta (25 to 35) addition and measured after 24 hrs per mg protein (reference value: 0.0012 +/-4.18 U); format: cell-based; conditions: dose 50.0 µg/ml, time 26.0 hrs
# T1 sequence (whole entry): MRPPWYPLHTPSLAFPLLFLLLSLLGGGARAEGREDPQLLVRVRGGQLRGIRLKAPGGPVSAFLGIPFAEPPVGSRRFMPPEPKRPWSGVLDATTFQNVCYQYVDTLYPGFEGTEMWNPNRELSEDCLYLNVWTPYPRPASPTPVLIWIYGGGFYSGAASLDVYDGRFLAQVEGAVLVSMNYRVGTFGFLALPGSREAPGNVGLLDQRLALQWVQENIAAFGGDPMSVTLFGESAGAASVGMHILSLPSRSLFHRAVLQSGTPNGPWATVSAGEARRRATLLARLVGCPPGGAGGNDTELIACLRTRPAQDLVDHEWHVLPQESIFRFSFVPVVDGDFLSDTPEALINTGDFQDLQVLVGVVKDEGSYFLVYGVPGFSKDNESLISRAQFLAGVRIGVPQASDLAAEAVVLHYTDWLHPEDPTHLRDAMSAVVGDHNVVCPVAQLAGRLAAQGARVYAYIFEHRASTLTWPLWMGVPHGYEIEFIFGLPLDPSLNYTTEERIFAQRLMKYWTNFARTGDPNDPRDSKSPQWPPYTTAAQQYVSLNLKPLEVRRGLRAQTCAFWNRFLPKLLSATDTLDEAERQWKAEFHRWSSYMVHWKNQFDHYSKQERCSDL
# Artemia salina [5] = assay: Toxicity in Artemia salina assessed as induction of morphological changes by measuring improper development at 5 to 100 ug/ml treated for 24 hrs by phase contrast light microscopy; format: organism-based; conditions: in vivo, dose 5-100 µg/ml
# N2a [6] = assay: Inhibition of Amyloid beta (25 to 35)-induced mitochondrial membrane potential loss in mouse Neuro2a cells at 25 to 50 ug/ml pretreated for 2 hrs followed by amyloid beta (25 to 35) addition and measured after 24 hrs by rhodamine 123 staining based fluorescent spectrophotometry; format: functional, cell-based; conditions: dose 25-50 µg/ml, time 26.0 hrs
# N2a [7] = assay: Inhibition of Amyloid beta (25 to 35)-induced apoptosis in mouse Neuro2a cells assessed as Bax/Bcl2 ratio at 50 ug/ml pretreated for 2 hrs followed by amyloid beta (25 to 35) addition and measured after 24 hrs by Western blot analysis (reference value: 1.09 +/- 0.018); format: functional; conditions: dose 50 µg/ml; time 26 hrs
# N2a [8] = assay: Neuroprotective activity against Amyloid beta (25 to 35)-induced toxicity in mouse Neuro2a cells assessed as reduction in cell viability loss at 25 to 100 ug/ml pretreated for 2 hrs followed by amyloid beta (25 to 35) addition and measured after 24 hrs by MTT assay; format: functional, cell-based; conditions: dose 25-100 µg/ml, time 26.0 hrs
# [9] = Toxicity in Artemia salina assessed as mortality rate at 50 ug/ml measured after 24 hrs relative to control; format: organism-based; conditions: in vivo, at 50 µg/mL
# N2a [10] = assay: as §1, with “lipid peroxidation” for “protein oxidation”, “MDA” for “protein carbonyl”, “25” for “50”, “106.4 +/-1.9 nmol)” for “44.06 +/- 1.02 mmol)”; format: functional; conditions: dose 25 µg/ml; time 26 hrs
# [11] = molecular target: Amyloid-beta precursor protein (Homo sapiens) (UniProt P05067); assay: Inhibition of amyloid beta (25 to 35) (unknown origin) aggregation assessed as fluorescence intensity at 50 ug/ml incubated for 9 days by ThT-based fluorescence microscopic analysis (reference value: 36.84 +/-0.94 AU); conditions: dose 50.0 µg/ml, time 9.0 day
# N2a [12] = assay: Inhibition of Amyloid beta (25 to 35)-induced apoptosis in mouse Neuro2a cells assessed as increase in BCl2 expression at 50 ug/ml pretreated for 2 hrs followed by amyloid beta (25 to 35) addition and measured after 24 hrs by Western blot analysis; format: functional, cell-based; conditions: dose 50.0 µg/ml, time 26.0 hrs
# N2a [13] = assay: as §1, with “25” for “50”, “nmol)” for “mmol)”; format: functional; conditions: dose 25 µg/ml; time 26 hrs
# N2a [14] = assay: (§3) Inhibition of Amyloid beta (25 to 35)-induced apoptosis in mouse Neuro2a cells assessed as reduction in caspase-3 activity by measuring PNA level at 25 ug/ml pretreated for 2 hrs followed by amyloid beta (25 to 35) addition and measured after 24 hrs per mg protein (reference value: 0.12 +/-0.004 mM/min); format: functional; conditions: dose 25 µg/ml; time 26 hrs
# [15] = molecular target: T1, Acetylcholinesterase (Mus musculus); assay: Inhibition of Amyloid beta (25 to 35)-induced AChE activity in mouse Neuro2a cells assessed as AChE activity at 25 ug/ml pretreated for 2 hrs followed by amyloid beta (25 to 35) addition and measured after 24 hrs per mg protein (reference value: 0.0012 +/-4.18 U); format: cell-based; conditions: dose 25.0 µg/ml, time 26.0 hrs
# [16] = molecular target: Acetylcholinesterase (Electrophorus electricus) (UniProt O42275); assay: Inhibition of electric eel AchE using acetylthiocholine iodide as substrate at 100 ug/ml by Ellman's method relative to control; conditions: dose 100.0 µg/ml
# [17] = molecular target: Amyloid-beta precursor protein (Homo sapiens) (UniProt P05067); assay: Inhibition of amyloid beta (25 to 35) (unknown origin) aggregation assessed as fluorescence intensity at 50 ug/ml incubated for 24 hrs by ThT-based fluorescence analysis (reference value: 22.15 +/-1.41 AU); conditions: dose 50.0 µg/ml
# Artemia salina [18] = assay: Toxicity in Artemia salina assessed as induction of morphological changes by measuring variation in the mandibles at 5 to 100 ug/ml treated for 24 hrs by phase contrast light microscopy; format: organism-based; conditions: in vivo, dose 5-100 µg/ml
# [19] = molecular target: Cholinesterase (Mus musculus) (UniProt Q03311); assay: Inhibition of Amyloid beta (25 to 35)-induced BuChE activity in mouse Neuro2a cells assessed as BuChE activity at 50 ug/ml pretreated for 2 hrs followed by amyloid beta (25 to 35) addition and measured after 24 hrs per mg protein (reference value: 0.0007 +/-3.64 U); format: cell-based; conditions: dose 50.0 µg/ml, time 26.0 hrs
# N2a [20] = assay: Cytotoxicity against mouse Neuro2a cells upto 200 ug/ml incubated for 24 hrs by MTT assay; format: toxicity, cell-based; conditions: dose < 200 µg/ml
# [21] = Toxicity in Artemia salina assessed as mortality rate at 75 ug/ml measured after 24 hrs relative to control; format: organism-based; conditions: in vivo, at 75 µg/mL
# N2a [22] = assay: as §2, with “at 50” for “at 25”; format: functional; conditions: dose 50 µg/ml; time 26 hrs
# [23] = Antioxidant activity assessed as free radical scavenging activity at 100 ug/ml by DPPH assay relative to control; format: functional; conditions: dose 100.0 µg/ml
# N2a [24] = assay: Inhibition of Amyloid beta (25 to 35)-induced oxidative damage in mouse Neuro2a cells assessed as reduction in ROS production by measuring reduction in fluorescence intensity at 25 to 50 ug/ml pretreated for 2 hrs followed by amyloid beta (25 to 35) addition and measured after 24 hrs by DCFH-DA staining -based spectrofluorimetric assay; format: functional, cell-based; conditions: dose 25-50 µg/ml, time 26.0 hrs
# [25] = molecular target: Acetylcholinesterase (Electrophorus electricus) (UniProt O42275); assay: Inhibition of electric eel AchE using acetylthiocholine iodide as substrate at 20 to 100 ug/ml by Ellman's method relative to control; conditions: dose 20-100 µg/ml
# [26] = Cytotoxicity against mouse Neuro2a cells assessed as cell viability at 100 ug/ml incubated for 24 hrs by MTT assay; format: toxicity, cell-based; conditions: Neuro2a (N2a) cells, at 100 µg/mL, read-out: Activity
# N2a [27] = assay: Inhibition of Amyloid beta (25 to 35)-induced apoptosis in mouse Neuro2a cells assessed as decrease in Bax expression at 50 ug/ml pretreated for 2 hrs followed by amyloid beta (25 to 35) addition and measured after 24 hrs by Western blot analysis; format: functional, cell-based; conditions: dose 50.0 µg/ml, time 26.0 hrs
# [28] = molecular target: Amyloid-beta precursor protein (Homo sapiens) (UniProt P05067); assay: Inhibition of amyloid beta (25 to 35) (unknown origin) aggregation assessed as fluorescence intensity at 50 ug/ml incubated for 48 hrs by ThT-based fluorescence analysis (reference value: 26.85 +/-0.78 AU); conditions: dose 50.0 µg/ml
# [29] = Toxicity in Artemia salina assessed as lethal dose; format: organism-based; conditions: in vivo
# N2a [30] = assay: as §1, with “lipid peroxidation” for “protein oxidation”, “MDA” for “protein carbonyl”, “106.4 +/-1.9 nmol)” for “44.06 +/- 1.02 mmol)”; format: functional; conditions: dose 50 µg/ml; time 26 hrs
# [31] = Toxicity in Artemia salina assessed as mortality rate at 5 ug/ml measured after 24 hrs relative to control; format: organism-based; conditions: in vivo, at 5 µg/mL
# N2a [32] = assay: as §3, with “at 50” for “at 25”; format: functional; conditions: dose 50 µg/ml; time 26 hrs
# [33] = Toxicity in Artemia salina assessed as mortality rate at 100 ug/ml measured after 24 hrs relative to control; format: organism-based; conditions: in vivo, at 100 µg/mL
# [34] = molecular target: Amyloid-beta precursor protein (Homo sapiens) (UniProt P05067); assay: Inhibition of amyloid beta (25 to 35) (unknown origin) aggregation assessed as fluorescence intensity at 50 ug/ml incubated for 96 hrs by ThT-based fluorescence analysis (reference value: 31.63 +/-0.68 AU); conditions: dose 50.0 µg/ml
# Artemia salina [35] = assay: Toxicity in Artemia salina assessed as induction of morphological changes by measuring improper antennae swimming setae at 5 to 100 ug/ml treated for 24 hrs by phase contrast light microscopy; format: organism-based; conditions: in vivo, dose 5-100 µg/ml
# [36] = molecular target: Amyloid-beta precursor protein (Homo sapiens) (UniProt P05067); assay: Disaggregation of amyloid beta (25 to 35) (unknown origin) mature fibrils at 50 ug/ml incubated for 1 to 9 days by ThT-based fluorescence microscopic analysis; conditions: dose 50.0 µg/ml, time 1-9 day
# [37] = molecular target: Cholinesterase (Mus musculus) (UniProt Q03311); assay: Inhibition of Amyloid beta (25 to 35)-induced BuChE activity in mouse Neuro2a cells assessed as BuChE activity at 25 ug/ml pretreated for 2 hrs followed by amyloid beta (25 to 35) addition and measured after 24 hrs per mg protein (reference value: 0.0007 +/-3.64 U); format: cell-based; conditions: dose 25.0 µg/ml, time 26.0 hrs
# [38] = Toxicity in Artemia salina assessed as mortality rate at 25 ug/ml measured after 24 hrs relative to control; format: organism-based; conditions: in vivo, at 25 µg/mL
# Acetylcholinesterase (Electrophorus electricus), sequence (O42275 24-633 limits assumed): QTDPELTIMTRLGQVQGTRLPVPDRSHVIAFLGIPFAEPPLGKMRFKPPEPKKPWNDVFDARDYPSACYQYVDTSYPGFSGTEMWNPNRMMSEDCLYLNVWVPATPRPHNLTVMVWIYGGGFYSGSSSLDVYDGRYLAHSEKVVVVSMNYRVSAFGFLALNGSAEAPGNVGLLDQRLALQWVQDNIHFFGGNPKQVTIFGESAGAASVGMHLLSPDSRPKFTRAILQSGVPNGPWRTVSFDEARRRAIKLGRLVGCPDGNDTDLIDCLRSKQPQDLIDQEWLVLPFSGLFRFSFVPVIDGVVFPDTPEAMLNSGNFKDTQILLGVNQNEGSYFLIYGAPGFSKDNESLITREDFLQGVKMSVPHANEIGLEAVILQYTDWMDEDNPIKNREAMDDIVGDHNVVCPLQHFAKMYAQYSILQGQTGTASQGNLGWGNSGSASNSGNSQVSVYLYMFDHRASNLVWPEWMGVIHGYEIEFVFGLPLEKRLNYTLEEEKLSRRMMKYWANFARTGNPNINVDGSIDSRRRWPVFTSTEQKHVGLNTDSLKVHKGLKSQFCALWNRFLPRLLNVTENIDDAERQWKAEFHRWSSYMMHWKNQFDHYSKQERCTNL
# Amyloid-beta precursor protein (Homo sapiens), sequence (P05067 whole entry): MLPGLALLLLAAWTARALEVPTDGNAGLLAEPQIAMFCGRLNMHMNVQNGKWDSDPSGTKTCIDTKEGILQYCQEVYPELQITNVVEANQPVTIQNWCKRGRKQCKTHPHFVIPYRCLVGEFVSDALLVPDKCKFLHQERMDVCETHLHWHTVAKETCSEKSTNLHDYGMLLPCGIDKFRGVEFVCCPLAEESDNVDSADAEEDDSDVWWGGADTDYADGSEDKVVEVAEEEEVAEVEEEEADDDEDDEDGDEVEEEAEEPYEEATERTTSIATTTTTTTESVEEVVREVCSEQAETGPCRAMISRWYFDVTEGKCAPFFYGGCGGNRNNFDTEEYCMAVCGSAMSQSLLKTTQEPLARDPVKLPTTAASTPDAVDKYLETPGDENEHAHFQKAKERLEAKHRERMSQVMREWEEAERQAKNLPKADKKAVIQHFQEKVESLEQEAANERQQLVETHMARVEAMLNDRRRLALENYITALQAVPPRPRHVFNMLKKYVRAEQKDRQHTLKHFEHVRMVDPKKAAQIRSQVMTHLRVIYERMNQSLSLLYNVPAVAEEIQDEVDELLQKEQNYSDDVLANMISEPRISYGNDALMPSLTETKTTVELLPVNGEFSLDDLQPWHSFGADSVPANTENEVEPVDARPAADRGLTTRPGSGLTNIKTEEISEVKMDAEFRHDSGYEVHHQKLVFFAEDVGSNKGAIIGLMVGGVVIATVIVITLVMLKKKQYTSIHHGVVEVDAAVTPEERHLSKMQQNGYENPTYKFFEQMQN
# Cholinesterase (Mus musculus), sequence (Q03311 whole entry): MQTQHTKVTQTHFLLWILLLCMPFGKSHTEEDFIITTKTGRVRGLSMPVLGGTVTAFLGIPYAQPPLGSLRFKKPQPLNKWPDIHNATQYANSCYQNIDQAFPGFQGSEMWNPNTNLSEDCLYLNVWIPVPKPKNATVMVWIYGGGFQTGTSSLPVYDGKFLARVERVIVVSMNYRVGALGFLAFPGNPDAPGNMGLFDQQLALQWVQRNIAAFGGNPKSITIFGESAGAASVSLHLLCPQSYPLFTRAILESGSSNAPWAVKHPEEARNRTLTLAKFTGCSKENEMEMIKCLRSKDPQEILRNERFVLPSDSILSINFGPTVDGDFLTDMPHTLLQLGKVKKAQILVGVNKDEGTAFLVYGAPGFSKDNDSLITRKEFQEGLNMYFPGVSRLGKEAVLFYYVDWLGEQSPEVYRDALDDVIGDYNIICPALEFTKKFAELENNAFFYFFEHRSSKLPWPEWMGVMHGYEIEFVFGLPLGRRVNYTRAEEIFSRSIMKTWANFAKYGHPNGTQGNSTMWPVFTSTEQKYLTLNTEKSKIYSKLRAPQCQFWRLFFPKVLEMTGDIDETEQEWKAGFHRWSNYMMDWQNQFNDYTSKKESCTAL
structure (smiles),measurement,setting,value
COc1ccc(/C=C/C(=O)c2c(O)cc(O[C@@H]3O[C@H](CO[C@@H]4O[C@@H](C)[C@H](O)[C@@H](O)[C@H]4O)[C@@H](O)[C@H](O)[C@H]3O)cc2OC)cc1O,Activity,N2a [1],27.9 nmol/mg
same,Activity,Artemia salina [2],Toxic
same,Activity,N2a [3],70.33%
same,Activity,[4],0 U
same,Activity,Artemia salina [5],Toxic
same,inhibition,N2a [6],Active
same,Ratio,N2a [7],0.51
same,Activity,N2a [8],Active
same,"mortality at 24 h, 50 ug/ml",[9],3.33%
same,Activity,N2a [10],77.84 nmol
same,Flu intensity,[11],11.8 a.u.
same,inhibition,N2a [12],Active
same,Activity,N2a [13],33.9 nmol/mg
same,Activity,N2a [14],0.07 mM/min
same,Activity,[15],0 U
same,inhibition,[16],93%
same,Flu intensity,[17],19.8 a.u.
same,Activity,Artemia salina [18],Toxic
same,Activity,[19],0 U
same,Activity,N2a [20],Non-Toxic
same,"mortality at 24 h, 75 ug/ml",[21],36.6%
same,Activity,N2a [22],81.66%
same,inhibition,[23],68.4%
same,inhibition,N2a [24],Active
same,inhibition,[25],> 80%
same,"viability at 24 h, 100 ug/ml",[26],99.6%
same,inhibition,N2a [27],Active
same,Flu intensity,[28],6.45 a.u.
same,LC50,[29],100 µg/mL
same,Activity,N2a [30],64.63 nmol
same,"mortality at 24 h, 5 ug/ml",[31],0%
same,Activity,N2a [32],0.03 mM/min
same,"mortality at 24 h, 100 ug/ml",[33],53.3%
same,Flu intensity,[34],10 a.u.
same,Activity,Artemia salina [35],Toxic
same,Activity,[36],Active
same,Activity,[37],0 U
same,"mortality at 24 h, 25 ug/ml",[38],0%
COc1ccc([C@@H]2CC(=O)c3c(O)cc(O[C@@H]4O[C@H](CO[C@@H]5O[C@@H](C)[C@H](O)[C@@H](O)[C@H]5O)[C@@H](O)[C@H](O)[C@H]4O)cc3O2)cc1O,inhibition,[16],94.4%
same,inhibition,[23],56%
